Experimental data published in patent US8193189B2, “Quinoxaline derivatives as tyrosine kinase activity inhibitors” (Novartis AG, priority 2007, dated 2012).

Key:
GST-JAK2(808-1132) = target: T1, GST-JAK2(808-1132) (Homo sapiens, UniProt O60674); assay: EPK JAK-family kinases profiling assay (Caliper mobility shift), JAK2; format: biochemical; details: ATP 20 μM
T1 construct: GST-JAK2(808-1132); purchased Invitrogen (Carlsbad, USA) #4288
Procedure, shortened: (§1)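 Turnover was read as substrate/product ratio after mobility-shift capillary-like separation of each reaction, run for 60 min at 30 °C with GST-tagged kinase domain, labelled peptide and ATP, and terminated with EDTA stop buffer.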

GST-JAK1(866-1154) = target: T2, GST-JAK1(866-1154) (Homo sapiens, UniProt P23458); assay: EPK JAK-family kinases profiling assay (Caliper mobility shift), JAK1; format: biochemical; details: ATP 40 μM, 50 nM kinase
T2 construct: GST-JAK1(866-1154); made in house
T2 sequence (P23458 866-1154): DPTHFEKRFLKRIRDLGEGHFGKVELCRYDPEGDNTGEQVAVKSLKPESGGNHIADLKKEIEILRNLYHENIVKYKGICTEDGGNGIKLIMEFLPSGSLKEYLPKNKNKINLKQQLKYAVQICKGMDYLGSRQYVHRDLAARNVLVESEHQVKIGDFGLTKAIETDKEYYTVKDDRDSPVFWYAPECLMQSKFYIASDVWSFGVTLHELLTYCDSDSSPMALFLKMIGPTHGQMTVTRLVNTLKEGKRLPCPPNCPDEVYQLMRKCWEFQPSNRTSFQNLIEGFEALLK
Procedure, shortened: as §1

GST-TYK2(888-1187) = target: T3, GST-TYK2(888-1187) (Homo sapiens, UniProt P29597); assay: EPK JAK-family kinases profiling assay (Caliper mobility shift), TYK2; format: biochemical; details: ATP 30 μM, 40 nM kinase
T3 construct: GST-TYK2(888-1187); made in house
T3 sequence (P29597 888-1187): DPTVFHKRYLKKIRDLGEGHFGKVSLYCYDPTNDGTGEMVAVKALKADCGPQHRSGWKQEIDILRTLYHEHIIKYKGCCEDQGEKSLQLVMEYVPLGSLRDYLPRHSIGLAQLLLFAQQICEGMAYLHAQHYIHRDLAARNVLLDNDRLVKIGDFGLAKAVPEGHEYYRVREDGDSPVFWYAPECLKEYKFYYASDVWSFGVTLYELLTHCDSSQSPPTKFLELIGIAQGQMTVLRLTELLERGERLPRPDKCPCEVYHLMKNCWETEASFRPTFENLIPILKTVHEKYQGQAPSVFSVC
From the text: All four kinases of the JAK-family kinases were used as purified recombinant GST-fusion proteins, containing the active kinase domains. GST-JAK1(866-1154), GST-JAK3(811-1124), and GST-TYK2(888-1187) were expressed and purified by affinity chromatography at the EPK biology unit. GST-JAK2(808-1132) was purchased from Invitrogen (Carlsbad, USA, #4288).
The kinase assays were based on the Caliper mobility shift assay using the LabChip 3000 systems. This technology is similar to capillary electrophoresis and uses charge driven separation of substrate and product in a microfluidic chip.
All kinase reactions were performed in 384 well microtiter plates in a total reaction volume of 18 μl. The assay plates were prepared with 0.1 μl per well of test compound in the appropriate test concentration, as described under the section “preparation of compound dilutions”. The reactions were started by combining 9 μl of substrate mix (consisting of peptide and ATP) with 9 μl of kinase dilution. The reactions were incubated for 60 minutes at 30° C. and stopped by adding 70 μl of stop buffer (100 mM Hepes, 5% DMSO, 0.1% Coating reagent, 10 mM EDTA, 0.015% Brij 35).
Fluorescently labeled synthetic peptides were used as substrates in all reactions. […] Specific assay conditions are described in Table 1:
The terminated reactions were transferred to the Caliper LabChip 3000 reader and the turnover of each reaction was measured by determining the substrate/product ratio.
Test compounds were dissolved in DMSO (10 mM) and transferred into 1.4 mL flat bottom or V-shaped Matrix tubes carrying a unique 2D matrix chip by individual compound hubs. The numbers of these chips were distinctively linked to the individual compound identification numbers. The stock solutions were stored at −20° C. if not used immediately. For the test procedure the vials were defrosted and identified by a scanner whereby a working sheet was generated that guided the subsequent working steps.
Compound dilutions were made in 96 well plates. This format enabled the assay of maximally 40 individual test compounds at 8 concentrations (single points) including 4 reference compounds. The dilution protocol included the production of pre-dilution plates, master plates and assay plates:
Pre-dilution plates: 96 polypropylene well plates were used as pre-dilution plates. A total of 4 pre-dilution plates were prepared including 10 test compounds each on the plate positions A1-A10, one standard compound at A11 and one DMSO control at A12. All dilution steps were done on a HamiltonSTAR robot.
Master plates: 100 μL of individual compound dilutions including standard compound and controls of the 4 “pre-dilution plates” were transferred into a 384 “master plate” including the following concentrations 1′820, 564, 182, 54.6, 18.2, 5.46, 1.82 and 0.546 μM, respectively in 90% of DMSO.
Assay plates: Identical assay plates were then prepared by pipetting 100 nL each of compound dilutions of the master plates into 384-well “assay plates”. […] The preparation of the master plates were handled by the Matrix PlateMate Plus robot and replication of assay plates by the HummingBird robot.

GST-JAK3(811-1124) = target: T4, GST-JAK3(811-1124) (Homo sapiens, UniProt P52333); assay: EPK JAK-family kinases profiling assay (Caliper mobility shift), JAK3; format: biochemical; details: ATP 80 μM, 6 nM kinase
T4 construct: GST-JAK3(811-1124); made in house
T4 sequence (P52333 811-1124): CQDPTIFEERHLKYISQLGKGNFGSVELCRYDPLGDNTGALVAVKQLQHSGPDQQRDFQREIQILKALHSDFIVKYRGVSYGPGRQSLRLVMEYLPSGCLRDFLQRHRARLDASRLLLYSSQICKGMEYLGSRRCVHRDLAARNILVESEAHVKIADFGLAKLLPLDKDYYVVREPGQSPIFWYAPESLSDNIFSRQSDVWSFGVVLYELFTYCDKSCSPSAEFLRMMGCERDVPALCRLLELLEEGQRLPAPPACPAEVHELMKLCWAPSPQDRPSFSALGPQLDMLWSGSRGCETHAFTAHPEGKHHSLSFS
Procedure, shortened: as §1

[1] = tested on: JAK/STAT pathway (JAK1/JAK2-dependent nuclear translocation of STAT1-GFP); assay: Inhibition of the JAK/STAT pathway: IFN-γ stimulated nuclear translocation of STAT1-GFP in HT1080 fibrosarcoma cells; format: cell-based; details: Homo sapiens, HT-1080; HT1080 STAT1-GFP cells, 100 ng/ml IFN-γ 2 hours, compound added 30 min before; read-out: STAT1translo IC50
Procedure, shortened: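 HT1080 cells stably expressing STAT1-GFP, compounds added 30 min before IFN-γ stimulation at final 10 μM down to 0.003 μM (0.1% DMSO). Nuclear-cytoplasmic GFP intensity differential quantified by automated imaging with Hoechst nuclear mask, ≥1000 cells per well, averaged per well.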

T1 sequence (O60674 808-1132): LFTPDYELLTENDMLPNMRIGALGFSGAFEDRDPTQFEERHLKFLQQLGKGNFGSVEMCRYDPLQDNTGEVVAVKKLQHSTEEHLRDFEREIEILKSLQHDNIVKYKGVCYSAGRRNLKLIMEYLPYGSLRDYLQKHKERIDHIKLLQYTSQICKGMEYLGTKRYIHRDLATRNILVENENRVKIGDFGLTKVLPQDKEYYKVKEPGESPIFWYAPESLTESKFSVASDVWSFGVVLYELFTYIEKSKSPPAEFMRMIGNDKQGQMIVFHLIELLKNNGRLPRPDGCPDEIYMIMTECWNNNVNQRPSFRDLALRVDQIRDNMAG

Structure (SMILES)	IC50 (GST-JAK2(808-1132); 1.8 nM kinase)	IC50 (GST-JAK1(866-1154))	IC50 (GST-TYK2(888-1187))	IC50 (GST-JAK2(808-1132); […] kinase)	IC50 (GST-JAK3(811-1124))	IC50 [1]
Cc1cc(-c2cccc3ncc(-c4c(C)nn(C5CCNCC5)c4C)nc23)ccc1CN1CCOCC1 [Example 158, 2-(3,5-Dimethyl-1-piperidin-4-yl-1H-pyrazol-4-yl)-8-(3-methyl-4-morpholin-4-ylmethyl-phenyl)-quinoxaline]	650 nM	> 10000 nM	> 10000 nM			
CC(=O)N1CCC(n2cc(-c3cnc4cccc(-c5cc(F)c(CN6CCOCC6)c(F)c5)c4n3)cn2)CC1 [Example 121, 1-(4-{4-[8-(3,5-Difluoro-4-morpholin-4-ylmethyl-phenyl)-quinoxalin-2-yl]-pyrazol-1-yl}-piperidin-1-yl)-ethanone]	3.8 nM	200 nM	230 nM			
CN1CCN(C(=O)c2cccc(-c3cnc4cccc(-c5ccc(CN6CCS(=O)(=O)CC6)cc5)c4n3)c2)CC1 [Example 165, (3-{8-[4-(1,1-Dioxido-thiomorpholin-4-ylmethyl)-phenyl]-quinoxalin-2-yl}-phenyl)-(4-methyl-piperazin-1-yl)-methanone]	74 nM	160 nM	1200 nM			
COc1cc(-c2cnc3cccc(-c4ccc(CC(=O)N5CCS(=O)(=O)CC5)cc4)c3n2)cc(OC)c1OC [Example 13, 1-(1,1-Dioxido-thiomorpholin-4-yl)-2-{4-[3-(3,4,5-trimethoxy-phenyl)-quinoxalin-5-yl]-phenyl}-ethanone]		27 nM	235 nM	5.1 nM		
O=C(Cc1ccc(-c2cccc3ncc(-c4ccc(N5CCOCC5)cc4)nc23)cc1)N1CCOCC1 [Example 45, 1-Morpholin-4-yl-2-{4-[3-(4-morpholin-4-yl-phenyl)-quinoxalin-5-yl]-phenyl}-ethanone]	30 nM	190 nM			2200 nM	2400 nM
Cc1cc(-c2cnc3cccc(-c4ccc(CN5CCS(=O)(=O)CC5)c(F)c4)c3n2)ccc1C(=O)N(C)C [Example 54, 4-{8-[4-(1,1-Dioxido-thiomorpholin-4-ylmethyl)-3-fluoro-phenyl]-quinoxalin-2-yl}-2,N,N-trimethyl-benzamide]	< 3 nM	17 nM			65 nM	140 nM
Cc1cc(-c2cccc3ncc(-c4ccc(C(=O)N5CCOCC5)c(C)c4)nc23)ccc1CN1CCS(=O)(=O)CC1 [Example 57, (4-{8-[4-(1,1-Dioxido-thiomorpholin-4-ylmethyl)-3-methyl-phenyl]-quinoxalin-2-yl}-2-methyl-phenyl)-morpholin-4-yl-methanone]	< 3 nM	80 nM			170 nM	163 nM
Cc1cc(-c2cnc3cccc(-c4ccc(CN5CCOCC5)c(F)c4)c3n2)ccc1C(=O)N1CCCC1 [Example 65, {4-[8-(3-Fluoro-4-morpholin-4-ylmethyl-phenyl)-quinoxalin-2-yl]-2-methyl-phenyl}-pyrrolidin-1-yl-methanone]	15.5 nM	240 nM			860 nM	2180 nM
Cc1cc(-c2cnc3cccc(-c4ccc(C(=O)N5CCCC5)c(C)c4)c3n2)ccc1C(=O)N1CCCC1 [Example 68, (2-Methyl-4-{3-[3-methyl-4-(pyrrolidine-1-carbonyl)-phenyl]-quinoxalin-5-yl}-phenyl)-pyrrolidin-1-yl-methanone]	109 nM	2300 nM			6850 nM	4890 nM
Cc1cc(-c2cnc3cccc(-c4ccc(CN5CCS(=O)(=O)CC5)cc4)c3n2)ccc1C(=O)N1CCN(C)CC1 [Example 40, (4-{8-[4-(1,1-Dioxido-thiomorpholin-4-ylmethyl)-phenyl]-quinoxalin-2-yl}-2-methyl-phenyl)-(4-methyl-piperazin-1-yl)-methanone]	7.3 nM	78.4 nM			627 nM	160 nM
O=C(c1ccc(-c2cccc3ncc(-c4ccc(OCCCN5CCOCC5)cc4)nc23)cc1F)N1CCOCC1 [Example 75, (2-Fluoro-4-{3-[4-(3-morpholin-4-yl-propoxy)-phenyl]-quinoxalin-5-yl}-phenyl)-morpholin-4-yl-methanone]	34 nM	410 nM			1700 nM	> 10000 nM
Cc1cc(-c2cnc3cccc(-c4ccc(CN5CCOCC5)c(F)c4)c3n2)ccc1C(=O)N1CCOCC1 [Example 58, {4-[8-(3-Fluoro-4-morpholin-4-ylmethyl-phenyl)-quinoxalin-2-yl]-2-methyl-phenyl}-morpholin-4-yl-methanone]	11 nM	90 nM			320 nM	220 nM
Cc1cc(-c2cnc3cccc(-c4ccc(CN5CCOCC5)c(C(F)(F)F)c4)c3n2)ccc1C(=O)N(C)C [Example 55, 2,N,N-Trimethyl-4-[8-(4-morpholin-4-ylmethyl-3-trifluoromethyl-phenyl)-quinoxalin-2-yl]-benzamide]	90 nM	1700 nM			4200 nM	3140 nM
Cc1cc(-c2cnc3cccc(-c4cc(F)c(CN5CCOCC5)c(F)c4)c3n2)ccc1C(=O)N1CCOCC1 [Example 59, {4-[8-(3,5-Difluoro-4-morpholin-4-ylmethyl-phenyl)-quinoxalin-2-yl]-2-methyl-phenyl}-morpholin-4-yl-methanone]	20 nM	520 nM			1950 nM	635 nM
COc1cc(-c2cnc3cccc(-c4ccc(C(=O)N5CCOCC5)c(Cl)c4)c3n2)cc(OC)c1OC [Example 18, {2-Chloro-4-[3-(3,4,5-trimethoxy-phenyl)-quinoxalin-5-yl]-phenyl}-morpholin-4-yl-methanone]	38 nM	230 nM			2300 nM	340 nM
Cc1cc(-c2cnc3cccc(-c4ccc(CN5CCS(=O)(=O)CC5)c(F)c4)c3n2)ccc1C(=O)N1CCOCC1 [Example 62, (4-{8-[4-(1,1-Dioxido-thiomorpholin-4-ylmethyl)-3-fluoro-phenyl]-quinoxalin-2-yl}-2-methyl-phenyl)-morpholin-4-yl-methanone]	5.7 nM	44.5 nM			330 nM	82 nM
Cc1cc(-c2cnc3cccc(-c4ccc(CC(=O)N5CCS(=O)(=O)CC5)c(F)c4)c3n2)ccc1Cn1ccnc1 [Example 72, 1-(1,1-Dioxido-thiomorpholin-4-yl)-2-{2-fluoro-4-[3-(4-imidazol-1-ylmethyl-3-methyl-phenyl)-quinoxalin-5-yl]-phenyl}-ethanone]	5.7 nM	110 nM			670 nM	1120 nM
